Results reported in article PMC12892976, “Alkylation-based optimization of antifungal FPPS inhibitors yields a potent, broad-spectrum lipophilic zoledronate derivative” (mBio, 2025).
Converted amounts (≈) assume the structure as drawn.

How the values were obtained:
Fusarium oxysporum [1] = assay: MIC broth microdilution (CLSI); format: cell-based; conditions: Fusarium oxysporum 07-200-3012
Experimental: Antifungal susceptibility was determined by broth microdilution according to the CLSI guidelines described in M27-Ed4 ([16]).

Saccharomyces cerevisiae [2] = assay: MIC/MFC broth microdilution (CLSI); format: cell-based; conditions: Saccharomyces cerevisiae S288c
Experimental: (§1) Antifungal susceptibility was determined by broth microdilution according to the CLSI guidelines described in M27-Ed4 ([16]). […] MFC was determined by back-plating drug-treated cultures from MIC broths onto SDA plates. The MFC was defined as the lowest concentration from which no colonies could be cultured.

Candida albicans [3] = assay: MIC/MFC broth microdilution (CLSI); format: cell-based; conditions: Candida albicans SC5314
Experimental: as §1

[4] = test system: Cryptococcus deuterogattii; assay: checkerboard drug interaction (FICI, MICc); format: cell-based;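 note: simplified diagonal checkerboard screen pairing antifungal drugs with FPPS inhibitors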
Experimental: (§2) Drug interactions between antifungals and FPPS inhibitors were investigated using a simplified checkerboard diagonal screening method ([45]). […] FICIs were determined according to the Loewe additivity model ([17]).

Cryptococcus neoformans [5] = assay: checkerboard drug interaction (FICI, MICc); format: cell-based;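 note: antifungal plus FPPS inhibitor pairs tested against Cryptococcus neoformans by simplified diagonal checkerboard screening, FICI computed under the Loewe additivity model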
Experimental: as §2

Fusarium oxysporum [6] = assay: checkerboard drug interaction (FICI, MICc); format: cell-based;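 note: simplified diagonal checkerboard screen pairing antifungals with FPPS inhibitors, FICI calculated under the Loewe additivity model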
Experimental: as §2

Saccharomyces cerevisiae [7] = assay: checkerboard drug interaction (FICI, MICc); format: cell-based;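 note: simplified diagonal checkerboard screen pairing antifungals with FPPS inhibitors, FICI calculated under the Loewe additivity model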
Experimental: as §2

Candida glabrata [8] = assay: checkerboard drug interaction (FICI, MICc); format: cell-based;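 note: simplified diagonal checkerboard screen pairing antifungals with FPPS inhibitors, FICI calculated under the Loewe additivity model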
Experimental: as §2

Candida albicans [9] = assay: checkerboard drug interaction (FICI, MICc); format: cell-based;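 note: antifungal plus FPPS inhibitor combinations on Candida albicans tested by a simplified diagonal checkerboard screen, with FICI calculated under the Loewe additivity model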
Experimental: as §2

Aspergillus flavus [10] = assay: checkerboard drug interaction (FICI, MICc); format: cell-based;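 note: simplified diagonal checkerboard screen pairing azole antifungals with FPPS inhibitors, FICI calculated under the Loewe additivity model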
Experimental: as §2

Aspergillus fumigatus [11] = assay: checkerboard drug interaction (FICI, MICc); format: cell-based;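 note: simplified diagonal checkerboard screen pairing antifungals with FPPS inhibitors against Aspergillus fumigatus, with FICI calculated under the Loewe additivity model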
Experimental: as §2

Trichophyton rubrum [12] = assay: checkerboard drug interaction (FICI, MICc); format: cell-based
Experimental: as §2

eight fungal species = assay: MIC/MFC summary across the eight fungal species of Table 1; format: cell-based
Experimental: The antifungal activity of these compounds was evaluated according to CLSI guidelines ([16]).

[13] = test system: Cryptococcus deuterogattii; assay: MIC/MFC broth microdilution (CLSI); conditions: for MIC / MEC: Cryptococcus deuterogattii R265;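 for all read-outs here: broth microdilution per CLSI M27-Ed4. MFC is the lowest concentration yielding no colonies when MIC broths are subcultured onto SDA plates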
Experimental: as §1

Cryptococcus neoformans [14] = assay: MIC/MFC broth microdilution (CLSI); conditions: for MIC / MEC: Cryptococcus neoformans H99;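 for all read-outs here: susceptibility testing followed the CLSI M27-Ed4 broth microdilution document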
Experimental: as §1

Candida glabrata [15] = assay: MIC/MFC broth microdilution (CLSI); conditions: for MIC / MEC: Candida glabrata CBS138 (ATCC 2001);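 for all read-outs here: broth microdilution following CLSI M27-Ed4, MFC taken as the lowest drug level yielding no growth once MIC wells were subcultured on SDA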
Experimental: as §1

Aspergillus flavus [16] = assay: MIC/MFC broth microdilution (CLSI); conditions: ATCC204304
Experimental: as §1

Aspergillus fumigatus [17] = assay: MIC/MFC broth microdilution (CLSI); conditions: ATCC204305
Experimental: as §1

Trichophyton rubrum [18] = assay: MIC/MFC broth microdilution (CLSI); conditions: for MIC / MEC: Trichophyton rubrum R-218
Experimental: as §1

CC(=O)N1CCN(c2ccc(OCC3COC(Cn4ccnc4)(c4ccc(Cl)cc4Cl)O3)cc2)CC1 (stereo not drawn) [KET, ketoconazole]
MIC / MEC (Fusarium oxysporum [1]): 16 µg/mL (≈ 30.1 µM)
MFC (Saccharomyces cerevisiae [2]): 8 µg/mL (≈ 15.1 µM)
MIC (Saccharomyces cerevisiae [2]): 1 µg/mL (≈ 1.88 µM)
MIC / MEC (Saccharomyces cerevisiae [2]): 1 µg/mL (≈ 1.88 µM)
MFC (Candida albicans [3]): 0.25 µg/mL (≈ 0.47 µM)
MIC (Candida albicans [3]): 0.0625 µg/mL (≈ 0.118 µM)
MIC / MEC (Candida albicans [3]): 0.06 µg/mL (≈ 0.113 µM)
antifungal MICc ([4]; in combination with 10-ZOL): 0.063
antifungal MICc ([4]; in combination with ZOL): 0.5
antifungal MICc (Cryptococcus neoformans [5]; in combination with 10-ZOL): 0.063
antifungal MICc (Cryptococcus neoformans [5]; in combination with ZOL): 0.125
antifungal MICc (Fusarium oxysporum [6]; in combination with 10-ZOL): 16
antifungal MICc (Fusarium oxysporum [6]; in combination with ZOL): 4
antifungal MICc (Saccharomyces cerevisiae [7]; in combination with 10-ZOL): 0.25
antifungal MICc (Saccharomyces cerevisiae [7]; in combination with ZOL): 0.25
antifungal MICc (Candida glabrata [8]; in combination with 10-ZOL): 0.016
antifungal MICc (Candida glabrata [8]; in combination with ZOL): 0.031
antifungal MICc (Candida albicans [9]; in combination with 10-ZOL): 0.125
antifungal MICc (Candida albicans [9]; in combination with ZOL): 0.25
antifungal MICc (Aspergillus flavus [10]; in combination with 10-ZOL): 1
antifungal MICc (Aspergillus flavus [10]; in combination with ZOL): 2
antifungal MICc (Aspergillus fumigatus [11]; in combination with 10-ZOL): 0.25
antifungal MICc (Aspergillus fumigatus [11]; in combination with ZOL): 2
antifungal MICc (Trichophyton rubrum [12]; in combination with 10-ZOL): 1
antifungal MICc (Trichophyton rubrum [12]; in combination with ZOL): 1
MFC (eight fungal species; across eight species, read-out: Geometric mean MFC): 6.7 µg/mL (≈ 12.6 µM)
MIC (eight fungal species; read-out: Geometric mean MIC): 1.3 µg/mL (≈ 2.45 µM)
MFC ([13]; Cryptococcus deuterogattii): 8 µg/mL (≈ 15.1 µM)
MIC ([13]; Cryptococcus deuterogattii): 4 µg/mL (≈ 7.53 µM)
MIC / MEC [13]: 4 µg/mL (≈ 7.53 µM)
MFC (Cryptococcus neoformans [14]; Cryptococcus neoformans): 4 µg/mL (≈ 7.53 µM)
MIC (Cryptococcus neoformans [14]; Cryptococcus neoformans): 0.25 µg/mL (≈ 0.47 µM)
MIC / MEC (Cryptococcus neoformans [14]): 0.25 µg/mL (≈ 0.47 µM)
MIC / MEC (Candida glabrata [15]): 0.5 µg/mL (≈ 0.941 µM)
MFC (Candida glabrata [15]; Nakaseomyces glabratus, CBS138): 4 µg/mL (≈ 7.53 µM)
MIC (Candida glabrata [15]; Nakaseomyces glabratus, CBS138): 0.5 µg/mL (≈ 0.941 µM)
MFC (Aspergillus flavus [16]): 8 µg/mL (≈ 15.1 µM)
MIC (Aspergillus flavus [16]): 2 µg/mL (≈ 3.76 µM)
MIC / MEC (Aspergillus flavus [16]): 2 µg/mL (≈ 3.76 µM)
MFC (Aspergillus fumigatus [17]): 16 µg/mL (≈ 30.1 µM)
MIC (Aspergillus fumigatus [17]): 4 µg/mL (≈ 7.53 µM)
MIC / MEC (Aspergillus fumigatus [17]): 4 µg/mL (≈ 7.53 µM)
MFC (Trichophyton rubrum [18]; Trichophyton rubrum): > 16 µg/mL
MIC (Trichophyton rubrum [18]; Trichophyton rubrum): 4 µg/mL (≈ 7.53 µM)
MIC / MEC (Trichophyton rubrum [18]): 4 µg/mL (≈ 7.53 µM)

Nc1nc(=O)[nH]cc1F [5FC, 5-flucytosine]
MIC / MEC (Fusarium oxysporum [1]): >64 µg/mL
MIC / MEC (Saccharomyces cerevisiae [2]): 1 µg/mL (≈ 7.75 µM)
MIC / MEC (Candida albicans [3]): 0.25 µg/mL (≈ 1.94 µM)
antifungal MICc ([4]; in combination with 10-ZOL): 0.5
antifungal MICc ([4]; in combination with ZOL): 0.125
antifungal MICc (Cryptococcus neoformans [5]; in combination with 10-ZOL): 0.25
antifungal MICc (Cryptococcus neoformans [5]; in combination with ZOL): 1
antifungal MICc (Fusarium oxysporum [6]; in combination with 10-ZOL): 512
antifungal MICc (Fusarium oxysporum [6]; in combination with ZOL): 512
antifungal MICc (Saccharomyces cerevisiae [7]; in combination with 10-ZOL): 1
antifungal MICc (Saccharomyces cerevisiae [7]; in combination with ZOL): 1
antifungal MICc (Candida glabrata [8]; in combination with 10-ZOL): 0.125
antifungal MICc (Candida glabrata [8]; in combination with ZOL): 0.125
antifungal MICc (Candida albicans [9]; in combination with 10-ZOL): 0.125
antifungal MICc (Candida albicans [9]; in combination with ZOL): 0.25
antifungal MICc (Aspergillus flavus [10]; in combination with 10-ZOL): 256
antifungal MICc (Aspergillus flavus [10]; in combination with ZOL): 128
antifungal MICc (Aspergillus fumigatus [11]; in combination with 10-ZOL): 256
antifungal MICc (Aspergillus fumigatus [11]; in combination with ZOL): 128
antifungal MICc (Trichophyton rubrum [12]; in combination with 10-ZOL): 32
antifungal MICc (Trichophyton rubrum [12]; in combination with ZOL): 128
MIC / MEC [13]: 8 µg/mL (≈ 62 µM)
MIC / MEC (Cryptococcus neoformans [14]): 4 µg/mL (≈ 31 µM)
MIC / MEC (Candida glabrata [15]): 0.25 µg/mL (≈ 1.94 µM)
MIC / MEC (Aspergillus flavus [16]): >64 µg/mL
MIC / MEC (Aspergillus fumigatus [17]): >64 µg/mL
MIC / MEC (Trichophyton rubrum [18]): >64 µg/mL

C[C@@H](c1ncncc1F)[C@](O)(Cn1cncn1)c1ccc(F)cc1F [VOR]
MIC / MEC (Fusarium oxysporum [1]): 4 µg/mL (≈ 11.5 µM)
MIC / MEC (Saccharomyces cerevisiae [2]): 0.5 µg/mL (≈ 1.43 µM)
MIC / MEC (Candida albicans [3]): 0.13 µg/mL (≈ 0.372 µM)
antifungal MICc ([4]; in combination with 10-ZOL): 0.125
antifungal MICc ([4]; in combination with ZOL): 0.063
antifungal MICc (Cryptococcus neoformans [5]; in combination with 10-ZOL): 0.063
antifungal MICc (Cryptococcus neoformans [5]; in combination with ZOL): 0.0625
antifungal MICc (Fusarium oxysporum [6]; in combination with 10-ZOL): 1
antifungal MICc (Fusarium oxysporum [6]; in combination with ZOL): 4
antifungal MICc (Saccharomyces cerevisiae [7]; in combination with 10-ZOL): 0.25
antifungal MICc (Saccharomyces cerevisiae [7]; in combination with ZOL): 0.25
antifungal MICc (Candida glabrata [8]; in combination with 10-ZOL): 0.25
antifungal MICc (Candida glabrata [8]; in combination with ZOL): 0.0625
antifungal MICc (Candida albicans [9]; in combination with 10-ZOL): 0.063
antifungal MICc (Candida albicans [9]; in combination with ZOL): 0.125
antifungal MICc (Aspergillus flavus [10]; in combination with 10-ZOL): 0.06
antifungal MICc (Aspergillus flavus [10]; in combination with ZOL): 0.25
antifungal MICc (Aspergillus fumigatus [11]; in combination with 10-ZOL): 0.25
antifungal MICc (Aspergillus fumigatus [11]; in combination with ZOL): 2
antifungal MICc (Trichophyton rubrum [12]; in combination with 10-ZOL): 0.25
antifungal MICc (Trichophyton rubrum [12]; in combination with ZOL): 0.25
MIC / MEC [13]: 0.25 µg/mL (≈ 0.716 µM)
MIC / MEC (Cryptococcus neoformans [14]): 0.13 µg/mL (≈ 0.372 µM)
MIC / MEC (Candida glabrata [15]): 0.25 µg/mL (≈ 0.716 µM)
MIC / MEC (Aspergillus flavus [16]): 0.5 µg/mL (≈ 1.43 µM)
MIC / MEC (Aspergillus fumigatus [17]): 0.5 µg/mL (≈ 1.43 µM)
MIC / MEC (Trichophyton rubrum [18]): 1 µg/mL (≈ 2.86 µM)
